Values quoted from earlier work, collected in patent publication US20240261419A1, “[…] PSILOCIN CONJUGATES FOR TREATMENT OF MENTAL ILLNESSES” (LONDON PHARMACEUTICALS AND RESEARCH CORPORATION, priority 2021, published 2024).
Where two headings read alike, the source gives them in different places.

Details: background comparison of pharmacokinetic profiles

Compound | time to reach maximum plasma level (CBD) | time to reach maximum plasma level (psilocybin)
C=C(C)[C@@H]1CCC(C)=C[C@H]1c1c(O)cc(CCCCC)cc1O [CBD, cannabidiol] | 4 to 6 h | –
CN(C)CCc1c[nH]c2cccc(OP(=O)(O)O)c12 [psilocy bin, psilocybin] | – | 1.5 h
